Legend:
CB2 = CB2 (Homo sapiens (Human), UniProt P34972); assay: Displacement of [3H]CP55940 in membranes of CHO-K1 cells over-expressing CB2; format: binding; conditions: radioligand [3H]CP55940, CHO-K1 membranes; read-out: Ki (nM) v. [3H]CP55940 at CB2
CB1 [1] = target: T1, CB1 (Homo sapiens (Human), UniProt P21554); assay: Displacement of [3H]CP55940 in membranes of CHO-K1 cells over-expressing CB1;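 for all read-outs here: reported values are averages of 3-6 independent measurements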; conditions: for Binding Selectivity using CP55940 Displacement: CB1 versus CB2; for Ki: read-out: Ki (nM) v. [3H]CP55940 at CB1, radioligand [3H]CP55940, CHO-K1 membranes
T1 sequence (P21554 whole entry): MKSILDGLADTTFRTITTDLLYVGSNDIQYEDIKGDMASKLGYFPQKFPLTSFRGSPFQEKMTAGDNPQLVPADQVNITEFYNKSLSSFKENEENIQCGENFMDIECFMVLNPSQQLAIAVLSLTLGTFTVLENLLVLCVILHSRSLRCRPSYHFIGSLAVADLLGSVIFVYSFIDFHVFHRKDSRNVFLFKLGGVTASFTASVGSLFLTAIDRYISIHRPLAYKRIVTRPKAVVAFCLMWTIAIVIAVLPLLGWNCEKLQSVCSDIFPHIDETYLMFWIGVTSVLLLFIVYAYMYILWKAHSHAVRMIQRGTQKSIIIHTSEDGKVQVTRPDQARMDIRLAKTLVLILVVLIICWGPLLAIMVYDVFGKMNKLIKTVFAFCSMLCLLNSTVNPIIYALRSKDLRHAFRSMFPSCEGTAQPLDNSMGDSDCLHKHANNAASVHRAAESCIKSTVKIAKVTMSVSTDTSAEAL
Protocol: Further characterization of select compounds was performed using radioligand displacement of [3H]1 and equilibrium dissociation constant (Ki) values were determined. Selectivity of these compounds at CB1 versus CB2 was also determined by obtaining Ki values at either receptor using displacement of [3H]CP55940 in membranes of CHO-K1 cells over-expressing either receptor. Data reported are average values from 3-6 measurements.
Selectivity against the CB2 receptor was determined by comparing the compound displacement of radiolabeled CP55940, which is a cannabinoid known to act as a full agonist at both CB1 and CB2 receptors.

CB1 [2] = target: T1, CB1; assay: CB1 activated Gαq16-coupled intracellular calcium mobilization assay in CHO-K1 cells; format: cell-based; conditions: apparent affinity (Ke)
[3] = Brain penetration / plasma and brain levels after oral dosing in SD rats; format: in vivo, Sprague-Dawley (SD) rats; conditions: oral 10 mg/kg; for Kp at 1 h / Kp at 2 h / Kp at 4 h / Kp at 24 h / Kp: Sprague-Dawley, rat, brain and plasma; for Kp: range over sampling times, read-out: brain to plasma ratios; for Brain conc.: unperfused brain
Protocol: However, unlike otenabant, this sulfonamide is a peripherally selective compound. […] Select compounds were chosen for study to determine penetration into the CNS. Selected compounds were dosed orally at 10 mg/kg in SD rats. Brain and plasma samples were collected at 1, 2, 4, and 24 hours post dose and samples were analyzed by MS (Table 2, below). Since unperfused brains were used and the blood volume in unperfused brains is approximately 4%, a brain to plasma level of ≦0.04 represents no discernible penetration into the CNS.

CB2, sequence (P34972 whole entry): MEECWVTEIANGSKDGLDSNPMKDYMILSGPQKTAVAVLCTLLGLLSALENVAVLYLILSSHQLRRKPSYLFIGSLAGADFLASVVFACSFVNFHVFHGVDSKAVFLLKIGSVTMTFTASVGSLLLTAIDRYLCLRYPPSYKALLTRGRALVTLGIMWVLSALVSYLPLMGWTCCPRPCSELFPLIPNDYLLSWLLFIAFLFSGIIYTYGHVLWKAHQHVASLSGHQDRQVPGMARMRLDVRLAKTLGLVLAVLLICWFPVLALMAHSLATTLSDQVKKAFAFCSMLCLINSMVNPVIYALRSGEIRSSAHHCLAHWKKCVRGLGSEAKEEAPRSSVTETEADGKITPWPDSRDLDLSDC

## CCNC(=O)NC1(c2ccccc2)CCN(c2ncnc3c2nc(-c2ccccc2Cl)n3-c2ccc(Cl)cc2)CC1
CB2
  Ki: 4640 nM
CB1 [1]
  Binding Selectivity using CP55940 Displacement: 24
  Ki: 195 nM
CB1 [2]
  Ke (nM) at CB1: 443 nM

## CC(C)NC(=O)NC1(c2ccccc2)CCN(c2ncnc3c2nc(-c2ccccc2Cl)n3-c2ccc(Cl)cc2)CC1
CB1 [2]
  Ke (nM) at CB1: 46 nM

## CCCNC(=O)NC1(c2ccccc2)CCN(c2ncnc3c2nc(-c2ccccc2Cl)n3-c2ccc(Cl)cc2)CC1
CB1 [2]
  Ke (nM) at CB1: 100 nM

## CCCCNC(=O)NC1(c2ccccc2)CCN(c2ncnc3c2nc(-c2ccccc2Cl)n3-c2ccc(Cl)cc2)CC1
CB1 [2]
  Ke (nM) at CB1: 62 nM

## CCOC(=O)CNC(=O)NC1(c2ccccc2)CCN(c2ncnc3c2nc(-c2ccccc2Cl)n3-c2ccc(Cl)cc2)CC1
CB1 [2]
  Ke (nM) at CB1: 171 nM

## O=C(NC1CCCCC1)NC1(c2ccccc2)CCN(c2ncnc3c2nc(-c2ccccc2Cl)n3-c2ccc(Cl)cc2)CC1
CB1 [2]
  Ke (nM) at CB1: 199 nM

## CC(C)(C)OC(=O)N1CCC(Nc2ncnc3c2nc(-c2ccccc2Cl)n3-c2ccc(Cl)cc2)CC1
CB2
  Ki: 13600 nM
CB1 [1]
  Binding Selectivity using CP55940 Displacement: 568.8
  Ki: 23.9 nM
CB1 [2]
  Ke (nM) at CB1: 92 nM

## Clc1ccc(-n2c(-c3ccccc3Cl)nc3c(NC4CCNCC4)ncnc32)cc1
CB1 [2]
  Ke (nM) at CB1: Not active

## CCNC(=O)N1CCC(Nc2ncnc3c2nc(-c2ccccc2Cl)n3-c2ccc(Cl)cc2)CC1
CB1 [2]
  Ke (nM) at CB1: 1148 nM

## CC(C)NC(=O)N1CCC(Nc2ncnc3c2nc(-c2ccccc2Cl)n3-c2ccc(Cl)cc2)CC1
CB1 [2]
  Ke (nM) at CB1: 495 nM

## CCCNC(=O)N1CCC(Nc2ncnc3c2nc(-c2ccccc2Cl)n3-c2ccc(Cl)cc2)CC1
CB1 [2]
  Ke (nM) at CB1: 1964 nM

## CCCCNC(=O)N1CCC(Nc2ncnc3c2nc(-c2ccccc2Cl)n3-c2ccc(Cl)cc2)CC1
CB1 [2]
  Ke (nM) at CB1: 71 nM

## CC(=O)N1CCC(Nc2ncnc3c2nc(-c2ccccc2Cl)n3-c2ccc(Cl)cc2)CC1
CB1 [2]
  Ke (nM) at CB1: 19595 nM

## CS(=O)(=O)N1CCC(Nc2ncnc3c2nc(-c2ccccc2Cl)n3-c2ccc(Cl)cc2)CC1
CB1 [2]
  Ke (nM) at CB1: 1645 nM

## CC(=O)N1CCCC(Nc2ncnc3c2nc(-c2ccccc2Cl)n3-c2ccc(Cl)cc2)C1 (centres unmarked)
CB1 [2]
  Ke (nM) at CB1: 4449 nM

## CCNC(=O)N1CCCC(Nc2ncnc3c2nc(-c2ccccc2Cl)n3-c2ccc(Cl)cc2)C1 (centres unmarked)
CB1 [2]
  Ke (nM) at CB1: 1153 nM

## CC(C)(C)OC(=O)NC1CCN(c2ncnc3c2nc(-c2ccccc2Cl)n3-c2ccc(Cl)cc2)CC1
CB1 [2]
  Ke (nM) at CB1: 11 nM

## COC(=O)NC1CCN(c2ncnc3c2nc(-c2ccccc2Cl)n3-c2ccc(Cl)cc2)CC1
CB1 [2]
  Ke (nM) at CB1: 17 nM

## O=C(NC1CCN(c2ncnc3c2nc(-c2ccccc2Cl)n3-c2ccc(Cl)cc2)CC1)c1ccccc1
CB2
  Ki: 10600 nM

## NC1CCN(c2ncnc3c2nc(-c2ccccc2Cl)n3-c2ccc(Cl)cc2)CC1
CB1 [2]
  Ke (nM) at CB1: 316 nM

## CCNC(=O)NC1CCN(c2ncnc3c2nc(-c2ccccc2Cl)n3-c2ccc(Cl)cc2)CC1
CB1 [2]
  Ke (nM) at CB1: 149 nM

## CC(C)NC(=O)NC1CCN(c2ncnc3c2nc(-c2ccccc2Cl)n3-c2ccc(Cl)cc2)CC1
CB1 [2]
  Ke (nM) at CB1: 133 nM

## CCCNC(=O)NC1CCN(c2ncnc3c2nc(-c2ccccc2Cl)n3-c2ccc(Cl)cc2)CC1
CB1 [2]
  Ke (nM) at CB1: 132 nM

## CCCCNC(=O)NC1CCN(c2ncnc3c2nc(-c2ccccc2Cl)n3-c2ccc(Cl)cc2)CC1
CB1 [2]
  Ke (nM) at CB1: 49 nM

## CS(=O)(=O)NC1CCN(c2ncnc3c2nc(-c2ccccc2Cl)n3-c2ccc(Cl)cc2)CC1
CB1 [2]
  Ke (nM) at CB1: 71 nM

## NS(=O)(=O)NC1CCN(c2ncnc3c2nc(-c2ccccc2Cl)n3-c2ccc(Cl)cc2)CC1
CB1 [2]
  Ke (nM) at CB1: 2768 nM

## O=S(=O)(NC1CCN(c2ncnc3c2nc(-c2ccccc2Cl)n3-c2ccc(Cl)cc2)CC1)C(F)(F)F
CB2
  Ki: 4500 nM
CB1 [1]
  Binding Selectivity using CP55940 Displacement: 738
  Ki: 6.1 nM
CB1 [2]
  Ke (nM) at CB1: 1.05 nM

## O=S(=O)(NC1CCN(c2ncnc3c2nc(-c2ccccc2Cl)n3-c2ccc(Cl)cc2)CC1)c1ccccc1
CB1 [2]
  Ke (nM) at CB1: 0.26 nM

## CC(=O)NC1CCN(c2ncnc3c2nc(-c2ccccc2Cl)n3-c2ccc(Cl)cc2)CC1
CB1 [2]
  Ke (nM) at CB1: 631 nM

## O=C(NC1CCN(c2ncnc3c2nc(-c2ccccc2Cl)n3-c2ccc(Cl)cc2)CC1)C(F)(F)F
CB1 [2]
  Ke (nM) at CB1: 3.19 nM

## O=C(CCN1CCCCC1)NC1CCN(c2ncnc3c2nc(-c2ccccc2Cl)n3-c2ccc(Cl)cc2)CC1
CB1 [2]
  Ke (nM) at CB1: 789 nM

## CN(C)CC(=O)NC1CCN(c2ncnc3c2nc(-c2ccccc2Cl)n3-c2ccc(Cl)cc2)CC1
CB1 [2]
  Ke (nM) at CB1: 140 nM

## O=C(NC1CCN(c2ncnc3c2nc(-c2ccccc2Cl)n3-c2ccc(Cl)cc2)CC1)C1CCCCC1
CB2
  Ki: 835 nM
CB1 [1]
  Binding Selectivity using CP55940 Displacement: 249
  Ki: 3.35 nM
CB1 [2]
  Ke (nM) at CB1: 3.3 nM

## O=C(CC1CCCCC1)NC1CCN(c2ncnc3c2nc(-c2ccccc2Cl)n3-c2ccc(Cl)cc2)CC1
CB2
  Ki: 2360 nM
CB1 [1]
  Ki: 1.93 nM
CB1 [2]
  Ke (nM) at CB1: 2.1 nM

## CC(C)CC(=O)NC1CCN(c2ncnc3c2nc(-c2ccccc2Cl)n3-c2ccc(Cl)cc2)CC1
CB2
  Ki: 89.5 nM
CB1 [1]
  Binding Selectivity using CP55940 Displacement: 22
  Ki: 4.01 nM
CB1 [2]
  Ke (nM) at CB1: 5.4 nM

## O=C(NC1CCN(c2ncnc3c2nc(-c2ccccc2Cl)n3-c2ccc(Cl)cc2)CC1)C1CCCC1
CB2
  Ki: 60.2 nM
CB1 [1]
  Binding Selectivity using CP55940 Displacement: 39
  Ki: 1.54 nM
CB1 [2]
  Ke (nM) at CB1: 0.89 nM

## CC(C)CCC(=O)NC1CCN(c2ncnc3c2nc(-c2ccccc2Cl)n3-c2ccc(Cl)cc2)CC1
CB2
  Ki: 215 nM
CB1 [1]
  Binding Selectivity using CP55940 Displacement: 81
  Ki: 2.67 nM
CB1 [2]
  Ke (nM) at CB1: 7.4 nM

## O=C(CC1CCCC1)NC1CCN(c2ncnc3c2nc(-c2ccccc2Cl)n3-c2ccc(Cl)cc2)CC1
CB2
  Ki: 569 nM
CB1 [1]
  Binding Selectivity using CP55940 Displacement: 282
  Ki: 2.02 nM
CB1 [2]
  Ke (nM) at CB1: 2.9 nM

## CCOC(=O)NC1CCN(c2ncnc3c2nc(-c2ccccc2Cl)n3-c2ccc(Cl)cc2)CC1 [drawing 62]
CB2
  Ki: 426 nM
CB1 [1]
  Binding Selectivity using CP55940 Displacement: 119
  Ki: 3.57 nM
CB1 [2]
  Ke (nM) at CB1: 2.3 nM

## CCCCC(=O)NC1CCN(c2ncnc3c2nc(-c2ccccc2Cl)n3-c2ccc(Cl)cc2)CC1 [drawing 78]
CB2
  Ki: 1050 nM
CB1 [1]
  Binding Selectivity using CP55940 Displacement: 54
  Ki: 19.5 nM
CB1 [2]
  Ke (nM) at CB1: 4.9 nM

## CCOC(=O)NC1CCN(c2ncnc3c2nc(-c2ccccc2Cl)n3-c2ccc(Cl)cc2)CC1 [drawing 84]
[3]; 1 hour post dose
  Kp at 1 h: 0.28
  Plasma conc.: 740 ng/mL
  Brain conc.: 207 ng/mL
[3]; 2 hours post dose
  Kp at 2 h: 0.14
  Plasma conc.: 971 ng/mL
  Brain conc.: 132 ng/mL
[3]; 4 hours post dose
  Kp at 4 h: 0.16
  Plasma conc.: 1750 ng/mL
  Brain conc.: 276 ng/mL
[3]; 24 hours post dose
  Kp at 24 h: 0.46
  Plasma conc.: 72.6 ng/mL
  Brain conc.: 33.5 ng/mL
[3]
  Kp: 0.14 to 0.46

## CCCCC(=O)NC1CCN(c2ncnc3c2nc(-c2ccccc2Cl)n3-c2ccc(Cl)cc2)CC1 [drawing 85]
[3]; 1 hour post dose
  Kp at 1 h: 0.03
  Plasma conc.: 1430 ng/mL
  Brain conc.: 43.6 ng/mL
[3]; 2 hours post dose
  Kp at 2 h: 0.03
  Plasma conc.: 2780 ng/mL
  Brain conc.: 72.4 ng/mL
[3]; 4 hours post dose
  Kp at 4 h: 0.07
  Plasma conc.: 1680 ng/mL
  Brain conc.: 119 ng/mL
[3]; 24 hours post dose
  Kp at 24 h: 0.13
  Plasma conc.: 18.7 ng/mL
  Brain conc.: 2.36 ng/mL
[3]
  Kp: 0.03 to 0.13

Source: patent US9187480B2, “Peripherally restricted diphenyl purine derivatives” (RESEARCH TRIANGLE INSTITUTE, priority 2012, dated 2015)
